Results on one molecule are retold here after US6696404B1, “Antibacterial composition having xanthorrizol” (LG Household & Healthcare, priority 1999, dated 2004).

Values after ≈ are worked out from the molar mass of the structure shown.

The test system of data set [1] is Streptococcus mutans. The experiment in a line: Viable cell count after xanthorrizol treatment. It counts as cell-based. Conditions: xanthorrizol 0.0004%(4 μg/ml); 37° C. The method, then: Xanthorrizol was also tested for Streptococcus mutans in a similar manner as described above: xanthorrizol was dissolved in DMSO to give specimens with a concentration of 0.0002%, 0.0004% and 0.0008%, respectively. Then, the specimens were incubated with the microorganism at 37° C. for 1, 2, 5 and 10 minutes, respectively, and subjected to serial 10-fold dilution. After the incubation with the pathogen, viable cell number for Streptococcus mutans was counted. FIG. 3 is a graph showing antibacterial activity of xanthorrizol against Streptococcus mutans in terms of viable cell number, where ♦ represents DMSO, control; ▪, 0.0002% crude extract; Δ, 0.0004% crude extract; x, 0.0008% crude extract, respectively.

For data set [2], the system named is human skin. The experiment in a line: Skin safety patch test. It counts as in vivo.
The subject of data set [3] is Salmonella typhimurium IFO 12529. The data set is described as follows: MIC by 2-fold dilution. Type of data set: cell-based. The following applies: Salmonella enterica; 2×10^5 CFU/ml; 30 to 37° C., more than 24 hours. On the procedure: (§1) In addition, minimum inhibitory concentration(MIC, μg/ml) for various microorganisms was determined by performing 2-fold dilution: first, 1 ml of medium was taken into each tube, and 1 ml of xanthorrizol(0.05% in DMSO) was added to only one tube to make 2-fold dilution. Then, serial 2-fold dilution was further carried out for the rest of the tubes, starting from the tube containing xanthorrizol. 100 μl of microorganism was added into each tube prepared by the 2-fold dilution to contain a final cell number of 2×10^5 CFU/ml, and incubated at 30 to 37° C. for more than 24 hours to determine minimum inhibitory concentrations for various test microorganisms(see: Table 12).

In data set [4] the test system is Streptococcus sanguis ATCC 35105. The data set is described as follows: MIC by 2-fold dilution. Type of data set: cell-based. Conditions: ATCC35105, 2×10^5 CFU/ml, 30 to 37° C., more than 24 hours. On the procedure:
as §1

In data set [5] the test system is Propionibacterium acnes ATCC 6919. The data set is described as follows: MIC by 2-fold dilution. It counts as cell-based. The following applies: Cutibacterium acnes, ATCC6919; 2×10^5 CFU/ml; 30 to 37° C., more than 24 hours. The method, then: as §1
The test system of data set [6] is Streptomyces bikiniensis ATCC 11062. The data set is described as follows: MIC by 2-fold dilution. It counts as cell-based. The following applies: ATCC11062, 2×10^5 CFU/ml, 30 to 37° C., more than 24 hours. On the procedure: as §1
The subject of data set [7] is Penicilium citrinum IFO 6352. The data set is described as follows: MIC by 2-fold dilution. Type of data set: cell-based. The following applies: 2×10^5 CFU/ml; 30 to 37° C., more than 24 hours. The method, then:
as §1

As for `CC(C)=CCC[C@@H](C)c1ccc(C)c(O)c1` [xanthorrizol, 1,3,5,10-bisabolatetraen-3-ol], in data set [1], the “Eradication of the microorganism (viable cell number, FIG. 3)” value is given as “eradicated almost completely in one minute”. Besides, the “adverse effects such as erythema, scarring or edema on skin” value in data set [2] is given as “do not cause adverse effects”. For the same molecule, the MIC in data set [3] stood at 62.5 µg/mL (≈ 286 µM); in data set [4], 4 µg/mL (≈ 18.3 µM); in data set [5], 16 µg/mL (≈ 73.3 µM); in data set [6], 32 µg/mL (≈ 147 µM); in data set [7], 250 µg/mL (≈ 1150 µM).
